Test results as given in patent publication US9833497B2, “Human originated EGF domain proteins and use of the same” (CHENGDU SOURCEBIO LIMITED-LIABILITY COMPANY, priority 2013, dated 2017).

Tests used:
Type in all cases: cell-based
Klebsiella pneumonia = assay: MIC against Gram-negative bacteria: Klebsiella pneumonia
How it was run: (§1)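 First, colonies from LB agar were grown in LB at 37° C, 185 rpm, to McFarland turbidity 0.5, then centrifuged and resuspended in fresh LB. Next, wells received 5×10^5 CFU/mL bacteria plus two-fold serially diluted EGF domain protein (triplicate). Finally, plates were shaken at 37° C and the no-growth concentration taken as MIC.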

Serratia marcescens = assay: MIC against Gram-negative bacteria: Serratia marcescens
How it was run: as §1

E. coli DH5α = assay: Antibacterial activity: MIC and growth curve against E. coli DH5α in 96-well plate; conditions: minimal inhibitory concentration against E. coli DH5α; 96-well plate, 5×10^5 CFU/mL, 37° C., judged after 8 h
How it was run: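 MIC taken as lowest protein level with no bacterial growth, tracked by A600 every 30 min during 37 °C, 175 rpm culture. Two-fold protein series 50-12.5 μg/mL final, triplicate wells, against 5×10^5 CFU/mL of LB-washed mid-log cells.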

Proteus vulgaris = assay: MIC against Gram-negative bacteria: Proteus vulgaris
How it was run: as §1

Citrobacter diversus = assay: MIC against Gram-negative bacteria: Citrobacter diversus
How it was run: as §1

Pseudomonas aeruginosa = assay: MIC against Gram-negative bacteria: Pseudomonas aeruginosa
How it was run: as §1

Aeromonas hydrophila = assay: MIC against Gram-negative bacteria: Aeromonas hydrophila
How it was run: as §1

E. coli BL21 = assay: MIC against Gram-negative bacteria: E. coli BL21
How it was run: as §1

Enterobacter cloacae = assay: MIC against Gram-negative bacteria: Enterobacter cloacae
How it was run: as §1

Moraxella catarrhalis = assay: MIC against Gram-negative bacteria: Moraxella catarrhalis
How it was run: as §1

Proteus mirabilis = assay: MIC against Gram-negative bacteria: Proteus mirabilis
How it was run: as §1

[1] = 10 h cultivation at 37° C., 5×10^5 CFU/mL, two-fold serial dilution
[2] = 96-well plate, 5×10^5 CFU/mL, 37° C., 10 h
[3] = K. pneumonia, 10 h cultivation at 37° C.
[4] = S. marcescens, 10 h cultivation at 37° C.
[5] = P. vulgaris, 10 h cultivation at 37° C.
[6] = C. diversus, 10 h cultivation at 37° C.
[7] = P. aeruginosa, 10 h cultivation at 37° C.
[8] = A. hydrophila, 10 h cultivation at 37° C.
[9] = E. coli BL21, 10 h cultivation at 37° C.
[10] = E. cloacae, 10 h cultivation at 37° C.
[11] = M. catarrhalis, 10 h cultivation at 37° C.
[12] = P. mirabilis, 10 h cultivation at 37° C.

PRT1174 (DLNYCGTHQPCLNGGTCSNTGPDKYQCSCPEGYSGPNCE; listed as Homo sapiens)
12.5 µg/mL: MIC (E. coli DH5α) | MIC C. diversus (Citrobacter diversus; [1]) | MIC P. aeruginosa (Pseudomonas aeruginosa; [1]) | MIC E. cloacae (Enterobacter cloacae; [1]) | MIC P. mirabilis (Proteus mirabilis; [1])
25 µg/mL: MIC P. vulgaris (Proteus vulgaris; [1])
50 µg/mL: MIC K. pneumonia (Klebsiella pneumonia; [1]) | MIC S. marcescens (Serratia marcescens; [1]) | MIC A. hydrophila (Aeromonas hydrophila; [1]) | MIC E. coli BL21 (E. coli BL21; [1]) | MIC M. catarrhalis (Moraxella catarrhalis; [1])

PRT488 (DRCQLQTRCQNGGQWDGLKCQCPSTFYGSSCE; listed as Homo sapiens)
50 µg/mL: MIC against S. marcescens (Serratia marcescens; [2]) | MIC (E. coli DH5α) | MIC against C. diversus (Citrobacter diversus; [2]) | MIC against P. aeruginosa (Pseudomonas aeruginosa; [2]) | MIC against E. cloacae (Enterobacter cloacae; [2]) | MIC against P. mirabilis (Proteus mirabilis; [2])
12.5 µg/mL: MIC against K. pneumonia (Klebsiella pneumonia; [2]) | MIC against P. vulgaris (Proteus vulgaris; [2]) | MIC against A. hydrophila (Aeromonas hydrophila; [2]) | MIC against E. coli BL21 (E. coli BL21; [2]) | MIC against M. catarrhalis (Moraxella catarrhalis; [2])

PRT797 (WGPNCSVSCSCENGGSCSPEDGSCECAPGFRGPLCQ; listed as Homo sapiens)
50 µg/mL: MIC (E. coli DH5α) | MIC (μg/mL) C. diversus (Citrobacter diversus; C. diversus, 10 h cultivation at 37° C., 5×10^5 CFU/mL) | MIC (μg/mL) P. aeruginosa (Pseudomonas aeruginosa; P. aeruginosa, 10 h cultivation at 37° C., 5×10^5 CFU/mL) | MIC (μg/mL) E. cloacae (Enterobacter cloacae; E. cloacae, 10 h cultivation at 37° C., 5×10^5 CFU/mL)
25 µg/mL: MIC (μg/mL) K. pneumonia (Klebsiella pneumonia; K. pneumonia, 10 h cultivation at 37° C., 5×10^5 CFU/mL)
12.5 µg/mL: MIC (μg/mL) S. marcescens (Serratia marcescens; S. marcescens, 10 h cultivation at 37° C., 5×10^5 CFU/mL) | MIC (μg/mL) P. vulgaris (Proteus vulgaris; P. vulgaris, 10 h cultivation at 37° C., 5×10^5 CFU/mL) | MIC (μg/mL) A. hydrophila (Aeromonas hydrophila; A. hydrophila, 10 h cultivation at 37° C., 5×10^5 CFU/mL) | MIC (μg/mL) E. coli BL21 (E. coli BL21; E. coli BL21, 10 h cultivation at 37° C., 5×10^5 CFU/mL) | MIC (μg/mL) M. catarrhalis (Moraxella catarrhalis; M. catarrhalis, 10 h cultivation at 37° C., 5×10^5 CFU/mL) | MIC (μg/mL) P. mirabilis (Proteus mirabilis; P. mirabilis, 10 h cultivation at 37° C., 5×10^5 CFU/mL)

PRT961 (DVDECASTPCRNGAKCVDQPDGYECRCAEGFEGTLCD; listed as Homo sapiens)
50 µg/mL: MIC (Proteus mirabilis; [12])
25 µg/mL: MIC (Klebsiella pneumonia; [3]) | MIC (Serratia marcescens; [4]) | MIC (Citrobacter diversus; [6]) | MIC (E. coli BL21; [9]) | MIC (Moraxella catarrhalis; [11])
12.5 µg/mL: MIC (E. coli DH5α) | MIC (Proteus vulgaris; [5]) | MIC (Aeromonas hydrophila; [8]) | MIC (Enterobacter cloacae; [10])
100 µg/mL: MIC (Pseudomonas aeruginosa; [7])

PRT1002 (FPDPCQNAQLCQNGGSCQALLPAPLGLPSSPSPLTPSFLCTCLPGFTGERCQ; listed as Homo sapiens)
12.5 µg/mL: MIC (Serratia marcescens; [4]) | MIC (E. coli BL21; [9]) | MIC (Enterobacter cloacae; [10]) | MIC (Moraxella catarrhalis; [11])
50 µg/mL: MIC (Klebsiella pneumonia; [3]) | MIC (Proteus vulgaris; [5]) | MIC (Aeromonas hydrophila; [8])
25 µg/mL: MIC (E. coli DH5α) | MIC (Citrobacter diversus; [6]) | MIC (Pseudomonas aeruginosa; [7]) | MIC (Proteus mirabilis; [12])

PRT614 (CNCNLYGTMKQQSSCNPVTGQCECLPHVTGQDCGACDPGFYNLQSGQGCER; listed as Homo sapiens)
50 µg/mL: MIC K. pneumonia (Klebsiella pneumonia; [2]) | MIC (E. coli DH5α) | MIC P. aeruginosa (Pseudomonas aeruginosa; [2]) | MIC E. coli BL21 (E. coli BL21; [2])
12.5 µg/mL: MIC P. vulgaris (Proteus vulgaris; [2]) | MIC A. hydrophila (Aeromonas hydrophila; [2]) | MIC E. cloacae (Enterobacter cloacae; [2]) | MIC M. catarrhalis (Moraxella catarrhalis; [2])
25 µg/mL: MIC S. marcescens (Serratia marcescens; [2]) | MIC C. diversus (Citrobacter diversus; [2]) | MIC P. mirabilis (Proteus mirabilis; [2])

PRT927 (DIDDCSSTPCLNGAKCIDHPNGYECQCATGFTGVLCE; listed as Homo sapiens)
12.5 µg/mL: MIC (Klebsiella pneumonia; [3]) | MIC (Proteus vulgaris; [5]) | MIC (Citrobacter diversus; [6])
50 µg/mL: MIC (Serratia marcescens; [4]) | MIC (Aeromonas hydrophila; [8]) | MIC (E. coli BL21; [9]) | MIC (Moraxella catarrhalis; [11])
25 µg/mL: MIC (E. coli DH5α) | MIC (Pseudomonas aeruginosa; [7]) | MIC (Enterobacter cloacae; [10]) | MIC (Proteus mirabilis; [12])
